The values below come from ChEMBL document CHEMBL1126446, “Acetylcholine releasing agents as cognition activators. Chemistry and pharmacology of a series of ureas” (1992).

The structures appear in SMILES notation.

What all share (type): functional
The species entered for test [1] is Rattus norvegicus. As to the kind of experiment: Compound was tested for the selective increase in basal stimulated AcCh release in hippocampus at 100 uM.
For test [2], the species on record is Rattus norvegicus. As to the kind of experiment: Compound was tested for the selective increase in basal stimulated AcCh release in striatum. Details: concentration or dose not given beside the values.
Test [3] is filed under the species Rattus norvegicus. As to the kind of experiment: Compound was tested for the selective increase in K+ stimulated AcCh release in cortex at 100 uM.
The species entered for test [4] is Rattus norvegicus. As to the kind of experiment: Compound was tested for the selective increase in K+ stimulated AcCh release in hippocampus at 100 uM.
For test [5], the species on record is Rattus norvegicus. As to the kind of experiment: Compound was tested for the selective increase in K+ stimulated AcCh release in striatum. More on the design: concentration or dose not given beside the values.
For test [6], the species on record is Rattus norvegicus. As to the kind of experiment: Compound was tested for the selective increase in basal stimulated AcCh release in cortex at 100 uM.
The species named for test [7] is Rattus norvegicus. As to the kind of experiment: Compound was tested for the selective increase in K+ stimulated AcCh release in cortex at 10 uM concentration.
Test [8] is filed under the species Rattus norvegicus. As to the kind of experiment: Compound was tested for the selective increase in K+ stimulated AcCh release in brain region of hippocampus at 100 uM concentration.
For test [9], the species on record is Rattus norvegicus. As to the kind of experiment: Compound was tested for the selective increase in K+ stimulated AcCh release in brain region of hippocampus at 10 uM concentration.
The species named for test [10] is Rattus norvegicus. As to the kind of experiment: Compound was tested for the selective increase in basal stimulated AcCh release in cortex at 100 uM concentration.
The species named for test [11] is Rattus norvegicus. As to the kind of experiment: Compound was tested for the selective increase in basal stimulated AcCh release in cortex at 1 uM concentration.
Test [12] is filed under the species Rattus norvegicus. As to the kind of experiment: Compound was tested for the selective increase in basal stimulated AcCh release in cortex at 50 uM concentration.
For test [13], the species on record is Rattus norvegicus. As to the kind of experiment: Compound was tested for the selective increase in basal stimulated AcCh release in striatum at 100 uM concentration.
The species entered for test [14] is Rattus norvegicus. As to the kind of experiment: Compound was tested for the selective increase in basal stimulated AcCh release in striatum at 10 uM concentration.
The species named for test [15] is Rattus norvegicus. As to the kind of experiment: Compound was tested for the selective increase in basal stimulated AcCh release in striatum at 1 uM concentration.
For test [16], the species on record is Rattus norvegicus. As to the kind of experiment: Compound was tested for the selective increase in K+ stimulated AcCh release in brain region of hippocampus at 1 uM concentration.
For test [17], the species on record is Rattus norvegicus. As to the kind of experiment: Compound was tested for the selective increase in K+ stimulated AcCh release in cortex at 100 uM concentration.
Test [18] is filed under the species Rattus norvegicus. As to the kind of experiment: Compound was tested for the selective increase in K+ stimulated AcCh release in cortex at 1 uM concentration.
Test [19] is filed under the species Rattus norvegicus. As to the kind of experiment: Compound was tested for the selective increase in K+ stimulated AcCh release in cortex at 50 uM concentration.
For test [20], the species on record is Rattus norvegicus. As to the kind of experiment: Compound was tested for the selective increase in K+ stimulated AcCh release in striatum 100 uM concentration.
The species entered for test [21] is Rattus norvegicus. As to the kind of experiment: Compound was tested for the selective increase in K+ stimulated AcCh release in striatum 10 uM concentration.
For test [22], the species on record is Rattus norvegicus. As to the kind of experiment: Compound was tested for the selective increase in K+ stimulated AcCh release in striatum 1 uM concentration.
The species entered for test [23] is Rattus norvegicus. As to the kind of experiment: Compound was tested for the selective increase in basal stimulated AcCh release in brain region of hippocampus at 100 uM concentration.
The species entered for test [24] is Rattus norvegicus. As to the kind of experiment: Compound was tested for the selective increase in basal stimulated AcCh release in brain region of hippocampus at 10 uM concentration.
The species entered for test [25] is Rattus norvegicus. As to the kind of experiment: Compound was tested for the selective increase in basal stimulated AcCh release in brain region of hippocampus at 1 uM concentration.
For test [26], the species on record is Rattus norvegicus. As to the kind of experiment: Compound was tested for the selective increase in basal stimulated AcCh release in cortex at 10 uM concentration.
The species entered for a further test is Mus musculus. As to the kind of experiment: Compound was tested for the minimum effective dose required for the inhibition of cholinesterase in mouse water maze. The conditions noted are these: read-out: MED.
The species entered for test [27] is Rattus norvegicus. As to the kind of experiment: Compound was tested for the selective increase in basal stimulated AcCh release in striatum at 50 uM concentration.
The species entered for test [28] is Rattus norvegicus. As to the kind of experiment: Compound was tested for the selective increase in K+ stimulated AcCh release in brain region of hippocampus at 50 uM concentration.
Test [29] is filed under the species Rattus norvegicus. As to the kind of experiment: Compound was tested for the selective increase in K+ stimulated AcCh release in striatum 50 uM concentration.
Test [30] is filed under the species Rattus norvegicus. As to the kind of experiment: Compound was tested for the selective increase in basal stimulated AcCh release in brain region of hippocampus at 50 uM concentration.

Consider `O=C(N(c1ccccc1)c1ccccc1)N(c1ccccc1)c1ccccc1`, for which the “AcCh release (% of control)” value in the test listed under Rattus norvegicus [1] was found to be 137.8%. Further, the Control is 402.4% in the test filed under Rattus norvegicus [2]; 209.3% in the test filed under Rattus norvegicus [3]; 420.6% in the test listed under Rattus norvegicus [4]; 303.7% in the test listed under Rattus norvegicus [5]; 144.1% in the test filed under Rattus norvegicus [6].

Take `O=C(N(c1ccccc1)c1ccncc1)N(c1ccc(F)cc1)c1ccc(F)cc1`: the “AcCh release (% of control)” value in the test filed under Rattus norvegicus [1] is reported as 115.6%. The same compound displayed a Control in the test listed under Rattus norvegicus [4] of 48.9%.

In the case of `Nc1ccncc1` [DALFAMPRIDINE], the Control in the test listed under Rattus norvegicus [7] was determined as 104%; in the test listed under Rattus norvegicus [8], 105%; in the test listed under Rattus norvegicus [9] it was 96.5%; in the test filed under Rattus norvegicus [10], 118%; in the test listed under Rattus norvegicus [11], 96.2%; in the test filed under Rattus norvegicus [12], 112.2%. Besides, the Control in the test filed under Rattus norvegicus [13] stood at 170.9%; in the test listed under Rattus norvegicus [14] it was 131.5%; in the test listed under Rattus norvegicus [15], 107.6%; in the test filed under Rattus norvegicus [16], 97.3%; in the test filed under Rattus norvegicus [17], 96.3%; in the test filed under Rattus norvegicus [18] it was 96.7%. The Control in the test listed under Rattus norvegicus [19] was 99.9%; in the test filed under Rattus norvegicus [20] it was 131.6%; in the test listed under Rattus norvegicus [21] it was 105.5%; in the test filed under Rattus norvegicus [22], 94%; in the test filed under Rattus norvegicus [23], 128.1%; in the test listed under Rattus norvegicus [24], 116.8%. The figures for the Control in the test listed under Rattus norvegicus [25] and in the test listed under Rattus norvegicus [26] were 112.7% and 102.4%, respectively.

In the case of `O=C(N(c1ccccc1)c1ccccc1)N(c1ccncc1)c1ccc(Cl)c(Cl)c1`, the minimal effective dose in the test listed under Mus musculus was determined as 32 mg/kg. The “AcCh release (% of control)” value in the test listed under Rattus norvegicus [1] is listed as 124.9%. Also, the Control in the test filed under Rattus norvegicus [4] is on record as 46.6%.

Consider `O=C(N(c1ccccc1)c1ccccc1)N(c1ccccc1)c1ccncc1`, for which the “AcCh release (% of control)” value in the test filed under Rattus norvegicus [1] is given as 95.4%. Besides, the Control in the test listed under Rattus norvegicus [2] was 279.8%; in the test filed under Rattus norvegicus [3], 100%; in the test filed under Rattus norvegicus [4] it was 129.8%; in the test listed under Rattus norvegicus [5], 206.5%; in the test listed under Rattus norvegicus [6] it was 95.2%.

As for `O=C(N(c1ccccc1)c1ccccc1)N(c1ccncc1)c1cccc(Cl)c1`, the “AcCh release (% of control)” value in the test listed under Rattus norvegicus [1] amounted to 103.4%. For the same compound, the Control in the test filed under Rattus norvegicus [4] came out at 9.8%.

Consider `O=C(N(c1ccncc1)c1ccc(Cl)c(Cl)c1)N(C1CCCCC1)C1CCCCC1`, for which, in the test filed under Rattus norvegicus [1], the “AcCh release (% of control)” value stood at 335.2%. In addition, in the test filed under Rattus norvegicus [4], the Control is listed as 233.2%.

Regarding `O=C(Nc1ccccc1)Nc1ccccc1` [DIPHENYLUREA], the “AcCh release (% of control)” value in the test filed under Rattus norvegicus [1] is reported as 89%. Also, the Control in the test filed under Rattus norvegicus [2] came out at 97.1%; in the test listed under Rattus norvegicus [3] it was 125.8%; in the test filed under Rattus norvegicus [4] it was 138.6%; in the test listed under Rattus norvegicus [5], 98.8%; in the test filed under Rattus norvegicus [6], 101.9%.

For `O=C(N(c1ccccc1)c1ccccc1)N(c1ccncc1)c1ccc(Cl)cc1`, the “AcCh release (% of control)” value in the test listed under Rattus norvegicus [1] worked out at 159.2%. The compound also showed a Control in the test filed under Rattus norvegicus [4] of 231.4%.

Take `Nc1ccncc1N` [AMIFAMPRIDINE]: the Control in the test listed under Rattus norvegicus [7] stood at 108.1%; in the test listed under Rattus norvegicus [8] it was 106.9%; in the test listed under Rattus norvegicus [9], 100.8%; in the test listed under Rattus norvegicus [10] it was 120.8%; in the test filed under Rattus norvegicus [11] it was 104.2%; in the test filed under Rattus norvegicus [12], 116%. Also, the Control in the test filed under Rattus norvegicus [13] stood at 224.8%; in the test filed under Rattus norvegicus [14], 164.2%; in the test filed under Rattus norvegicus [15] it was 129.3%; in the test listed under Rattus norvegicus [27], 180.9%; in the test filed under Rattus norvegicus [16] it was 121.9%; in the test filed under Rattus norvegicus [28] it was 119.6%. Besides, the Control in the test listed under Rattus norvegicus [17] is reported as 110.8%; in the test listed under Rattus norvegicus [18] it was 93.5%; in the test filed under Rattus norvegicus [19], 103%; in the test listed under Rattus norvegicus [20] it was 105.9%; in the test listed under Rattus norvegicus [21] it was 111.5%; in the test listed under Rattus norvegicus [22], 88.8%. The Control is on record as 118.5% in the test filed under Rattus norvegicus [29]; 127.8% in the test listed under Rattus norvegicus [23]; 114% in the test listed under Rattus norvegicus [24]; 106.2% in the test listed under Rattus norvegicus [25]; 119% in the test listed under Rattus norvegicus [30]; 113.8% in the test listed under Rattus norvegicus [26].

Consider `O=C(Nc1ccccc1)N(c1ccccc1)c1ccccc1`, for which the “AcCh release (% of control)” value in the test listed under Rattus norvegicus [1] was 78%. Besides, the Control in the test listed under Rattus norvegicus [2] came to 259.5%; in the test filed under Rattus norvegicus [3], 195.7%; in the test filed under Rattus norvegicus [4] it was 151.3%; in the test filed under Rattus norvegicus [5] it was 224%; in the test listed under Rattus norvegicus [6], 100.3%.

As for `O=C(N(c1ccccc1)c1ccccc1)N(c1ccccc1)c1ccccn1`, in the test filed under Rattus norvegicus [1], the “AcCh release (% of control)” value was 113.5%. For the same compound, the Control in the test listed under Rattus norvegicus [2] is on record as 232.1%; in the test filed under Rattus norvegicus [3] it was 158.8%; in the test filed under Rattus norvegicus [4], 318.3%; in the test listed under Rattus norvegicus [5] it was 266.6%; in the test filed under Rattus norvegicus [6] it was 130%.

Take `Cc1ccc(N(C(=O)N(c2ccccc2)c2ccccc2)c2ccncc2)cc1`: the minimal effective dose in the test filed under Mus musculus is greater than 32 mg/kg. The “AcCh release (% of control)” value in the test filed under Rattus norvegicus [1] amounted to 186.4%. The same compound registered a Control in the test listed under Rattus norvegicus [4] of 229%.

Take `NC(=O)Nc1ccccc1` [PHENYLUREA]: the “AcCh release (% of control)” value in the test listed under Rattus norvegicus [1] is 94.1%. Further, the Control in the test filed under Rattus norvegicus [2] amounted to 99.3%; in the test filed under Rattus norvegicus [3], 116.4%; in the test listed under Rattus norvegicus [4], 107.9%; in the test filed under Rattus norvegicus [5], 99.8%; in the test filed under Rattus norvegicus [6], 105.8%.

Take `NC(=O)N(c1ccccc1)c1ccccc1`: the “AcCh release (% of control)” value in the test filed under Rattus norvegicus [1] is listed as 92.2%. The Control was found to be 105.9% in the test listed under Rattus norvegicus [2]; 111.4% in the test listed under Rattus norvegicus [3]; 128.7% in the test listed under Rattus norvegicus [4]; 98.9% in the test listed under Rattus norvegicus [5]; 105.1% in the test filed under Rattus norvegicus [6].
